From patent US6649780B1, “Cationic lipids” (Valentis, Inc., priority 1998, dated 2003)

Experiment: Liposome formation and sizing after extrusion
Assay type: physicochemical
Description: Two mice studies have been performed for the evaluation of cationic lipids of the present invention, in comparison with DOTIM. In brief, the lipid combinations were tested as carriers for gene transfer by intravenous delivery in ICR female mice (25 g), and expression was determined using the plasmid p4119 containing the CAT reporter gene under the control of the HCMV promoter. The lipids were dissolved in a mixture of chloroform and methanol (1.1). Lipid films of cationic and neutral lipid at a 1:1 molar ratio were formed with a rotary evaporator. The films were hydrated with 5% dextrose in water (D5W) at room temperature and extruded through a series of membranes having pore sizes of 400 nm, 200 nm, and 50 nm.
DNA-liposome complexes were prepared at a 1:10 DNA:cationic lipid ratio (mg DNA per μmole cationic lipid) by adding the DNA, in a solution at 0.625 mg/mL concentration in D5W to the solution of liposomes, in an equal volume, with constant stirring, using a Hamilton Dilutor 540B (Hamilton, Reno, Nev.). The lipids used were MBN 246, 247, 248, 249, 250, 251 and 252 (FIG. 10). MBN 249 was used in a 1:10 ratio with cholesterol. MBN 250 was used in a 1:10 ratio with DLPE. The DNA solution was 0.3125 mg/mL DNA in D5W. […] Zeta potential was determined by a Zeta Plus, Zeta Potential Analyzer (Brookhaven Instruments Corp.).

liposome formation: forms liposomes easily
Substance: N,N-Dimethyl-N-(2,3-dihydroxypropanylo-N-(2,3-dioleyloxypropanyl)amonium Chloride [MBN305]
